Assays:
Tau-BiFC cells = experiment: Cytotoxicity (cell survival rate) in tau-BiFC cells; conditions: group treated with Forskolin alone = 100%
Procedure: (§1) In order to select new tau protein aggregation-inhibiting materials, tau-BiFC cell models, in which it is easy to observe the formation of tau oligomers in living cells, were used. […] After 48 hours, intracellular nuclei were stained using Hoechst (treatment concentration 2 μg/mL), and BiFC fluorescence intensity was automatically quantified using Operetta (PerkinElmer) to count stained nuclei in each well from the total well plates. […] Further, the degree of cytotoxicity induced by the newly synthesized compound is also based on the 100% survival rate of the group treated with Forskolin alone, and the cytotoxicity value of the compound was calculated by the equation “number of stained nuclei in the group treated with the compound/number of stained nuclei in the group treated with Forskolin x 100”.
(§2) In order to evaluate dose-dependent tau protein aggregation inhibition effects of the compounds selected according to Experimental Example 1, the selected compounds were treated in tau-BiFC cells at concentrations of 0.03 µM, […], 0.3 μM, 1 μM, 3 μM, 10 μM, and 30 μM, respectively, together with Forskolin (treatment concentration 30 µM) as a tau protein aggregation inducing material. After 48 hours, tau protein aggregation reaction and cytotoxicity degree were analyzed by observing cell images. The IC50 and toxicity of the compounds were analyzed by nonlinear regression analysis of prism software (Graph Pad).

tau protein = target: T1, tau protein (Homo sapiens, UniProt P10636); experiment: Tau protein aggregation inhibition in tau-BiFC cell model; type: cell-based; conditions: tau-BiFC cells treated together with Forskolin, 48 hours
T1 construct: expressed in transfected cells
T1 sequence (P10636 2-441 isoform P10636-8 limits assumed): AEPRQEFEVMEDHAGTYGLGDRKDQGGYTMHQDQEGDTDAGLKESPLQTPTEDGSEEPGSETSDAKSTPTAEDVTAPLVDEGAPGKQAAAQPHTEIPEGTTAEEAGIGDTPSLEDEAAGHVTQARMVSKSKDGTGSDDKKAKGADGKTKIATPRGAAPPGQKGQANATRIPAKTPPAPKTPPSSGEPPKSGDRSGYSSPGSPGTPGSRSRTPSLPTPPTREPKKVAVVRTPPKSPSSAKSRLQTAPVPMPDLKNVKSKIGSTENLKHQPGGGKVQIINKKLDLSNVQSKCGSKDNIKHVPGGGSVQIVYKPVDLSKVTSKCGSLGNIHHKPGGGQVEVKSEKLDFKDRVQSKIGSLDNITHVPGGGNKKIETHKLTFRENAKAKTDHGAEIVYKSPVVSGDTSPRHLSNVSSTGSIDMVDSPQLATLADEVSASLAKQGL
Procedure: as §1, §2

[1] = Liver microsomal stability (mouse); type: in vitro ADME; conditions: amount of substrate remaining; 1 μM, 0.25 mg/mL microsomes, 37° C., 30 minutes
Procedure: (§3) The liver microsomal stability of the compounds prepared according to Examples 1 to 171 was confirmed. Specifically, four kinds of liver microsomes (human, dog, rat, and mouse, each 0.25 mg/mL), a 0.1 M phosphate buffer solution (pH 7.4), and the compounds with a concentration of 1 μM were added, respectively. Then the mixture was cultured in advance at 37° C. for 5 minutes, and then further cultured at 37° C. for 30 minutes together with the addition of an NADPH generation system solution. Thereafter, a reaction was terminated by adding an acetonitrile solution containing an internal standard material (chloropropamide), centrifugal separation (14,000 rpm, 4° C.) was performed for 5 minutes, and then a supernatant was injected into an LC-MS/MS system. The substrate drugs were analyzed to evaluate the metabolic stability for 8 kinds of compounds.
(§4) The amount of substrate remaining through the reaction was analyzed using the Shimadzu Nexera XR system and TSQ vantage (Thermo). Kinetex XB-C18 (2.1 mm×100 mm, 2.6 μm, particle size; Phenomenex, USA) was used in an HPLC column, and (A) distilled water containing 0.1% formic acid and (B) acetonitrile containing 0.1% formic acid were used as mobile phases. Analyst software (version 1.6.3) and Xcalibur (version 1.6.1) were used for data analysis.

[2] = Liver microsomal stability (dog); type: in vitro ADME; conditions: amount of substrate remaining; 1 μM, 0.25 mg/mL microsomes, 37° C., 30 minutes
Procedure: as §3, §4

CYP3A4 = target: T2, CYP3A4 (Homo sapiens, UniProt P08684); experiment: Inhibition of CYP coenzyme activity in human liver microsomes; type: in vitro ADME; parameters: scale not given here; conditions: compound 10 PM (so in the source); human liver microsomes 0.25 mg/mL; substrate midazolam; 15 minutes
T2 construct: human liver microsomes (0.25 mg/mL); from tissue; host or cells: human liver microsomes
T2 sequence (P08684 whole entry): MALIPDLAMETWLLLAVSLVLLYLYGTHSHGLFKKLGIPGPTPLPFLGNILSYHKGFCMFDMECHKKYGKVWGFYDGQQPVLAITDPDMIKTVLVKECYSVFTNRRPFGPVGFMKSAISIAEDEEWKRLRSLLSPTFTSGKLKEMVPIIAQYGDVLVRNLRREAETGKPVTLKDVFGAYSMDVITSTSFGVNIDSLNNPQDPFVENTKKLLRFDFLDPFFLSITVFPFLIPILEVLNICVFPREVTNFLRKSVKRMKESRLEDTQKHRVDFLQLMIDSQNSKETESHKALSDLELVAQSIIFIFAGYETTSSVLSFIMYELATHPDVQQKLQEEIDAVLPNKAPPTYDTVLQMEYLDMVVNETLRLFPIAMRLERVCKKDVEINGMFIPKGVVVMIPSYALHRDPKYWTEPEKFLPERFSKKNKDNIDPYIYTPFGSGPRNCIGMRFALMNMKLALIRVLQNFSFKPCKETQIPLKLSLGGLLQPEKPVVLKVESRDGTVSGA
Procedure: (§5) 5 The inhibition effects of CYP coenzyme activity by the compounds prepared according to Examples 1 to 171 was confirmed. Specifically, human liver microsomes (0.25 mg/mL), a 0.1 M phosphate buffer solution (pH 7.4), substrate drug cocktails (phenacetin 50 μM, diclofenac 10 μM, S-mephenytoin 100 μM, dextromethorphan 5 μM, and midazolam 2.5 μM) of five kinds of drug metabolism enzymes, and the compounds with a concentration of 0 μM or 10 PM were added, respectively. Then the mixture was cultured in advance at 37° C. for 5 minutes, and then further cultured at 37° C. for 15 minutes together with the addition of an NADPH generation system solution. Thereafter, a reaction was terminated by adding an acetonitrile solution containing an internal standard material (terfenadine), centrifugal separation (14,000 rpm, 4° C.) was performed for 5 minutes, and then a supernatant was injected into an LC-MS/MS system. Metabolites of the substrate drugs were simultaneously analyzed to evaluate the drug metabolism inhibition ability.
(§6) Metabolites of each CYP coenzyme indicator drug generated through the reaction were analyzed using the Shimadzu Nexera XR system and TSQ vantage (Thermo). Kinetex C18 (2.1 mm×100 mm, 2.6 μm, particle size; Phenomenex, USA) was used in an HPLC column, and (A) distilled water containing 0.1% formic acid and (B) acetonitrile containing 0.1% formic acid were used as mobile phases, and the gradient program shown in Table 2 was applied.
(§7) The generated metabolites were quantified using an MRM (multiple reaction monitoring) quantification mode, and Xcalibur (version 1.6.1) was used for data analysis.

[3] = Liver microsomal stability (human); type: in vitro ADME; conditions: amount of substrate remaining; 1 μM, 0.25 mg/mL microsomes, 37° C., 30 minutes
Procedure: as §3, §4

[4] = Liver microsomal stability (rat); type: in vitro ADME; conditions: amount of substrate remaining; 1 μM, 0.25 mg/mL microsomes, 37° C., 30 minutes
Procedure: as §3, §4

CYP1A2 = target: T3, CYP1A2 (Homo sapiens, UniProt P05177); experiment: Inhibition of CYP coenzyme activity in human liver microsomes; type: in vitro ADME; conditions: compound 10 PM (so in the source); human liver microsomes 0.25 mg/mL; substrate phenacetin; 15 minutes
T3 construct: human liver microsomes (0.25 mg/mL); from tissue; host or cells: human liver microsomes
T3 sequence (P05177 1-516): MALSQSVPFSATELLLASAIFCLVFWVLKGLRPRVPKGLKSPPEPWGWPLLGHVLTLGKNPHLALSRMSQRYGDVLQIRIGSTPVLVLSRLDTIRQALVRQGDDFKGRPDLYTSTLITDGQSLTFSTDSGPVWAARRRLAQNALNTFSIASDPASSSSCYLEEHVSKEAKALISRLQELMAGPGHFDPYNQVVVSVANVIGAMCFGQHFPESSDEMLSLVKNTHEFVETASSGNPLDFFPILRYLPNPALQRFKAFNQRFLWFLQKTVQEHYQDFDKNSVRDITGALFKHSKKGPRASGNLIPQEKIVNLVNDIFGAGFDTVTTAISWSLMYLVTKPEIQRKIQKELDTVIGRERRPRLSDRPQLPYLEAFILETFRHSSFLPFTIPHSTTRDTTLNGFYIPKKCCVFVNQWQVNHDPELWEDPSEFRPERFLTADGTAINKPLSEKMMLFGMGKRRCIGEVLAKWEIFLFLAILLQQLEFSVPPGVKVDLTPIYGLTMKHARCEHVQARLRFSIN
Procedure: as §5, §6, §7

CYP2C19 = target: T4, CYP2C19 (Homo sapiens, UniProt P33261); experiment: as above; type: in vitro ADME; conditions: compound 10 PM (so in the source); human liver microsomes 0.25 mg/mL; substrate S-mephenytoin; 15 minutes
T4 construct: human liver microsomes (0.25 mg/mL); from tissue; host or cells: human liver microsomes
T4 sequence (P33261 whole entry): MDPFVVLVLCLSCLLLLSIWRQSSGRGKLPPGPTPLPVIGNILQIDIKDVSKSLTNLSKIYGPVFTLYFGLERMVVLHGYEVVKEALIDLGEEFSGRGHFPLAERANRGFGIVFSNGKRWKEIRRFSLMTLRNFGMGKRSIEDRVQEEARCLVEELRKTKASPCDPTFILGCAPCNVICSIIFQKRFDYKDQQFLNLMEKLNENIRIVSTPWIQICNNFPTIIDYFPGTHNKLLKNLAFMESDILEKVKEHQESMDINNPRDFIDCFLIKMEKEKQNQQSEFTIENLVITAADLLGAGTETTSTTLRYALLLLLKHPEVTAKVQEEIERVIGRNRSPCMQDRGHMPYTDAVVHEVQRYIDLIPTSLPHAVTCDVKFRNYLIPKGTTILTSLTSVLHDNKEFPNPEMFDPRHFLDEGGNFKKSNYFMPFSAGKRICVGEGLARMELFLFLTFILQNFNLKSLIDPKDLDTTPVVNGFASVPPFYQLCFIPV
Procedure: as §5, §6, §7

CYP2D6 = target: T5, CYP2D6 (Homo sapiens, UniProt P10635); experiment: as above; type: in vitro ADME; conditions: compound 10 PM (so in the source); human liver microsomes 0.25 mg/mL; substrate dextromethorphan; 15 minutes
T5 construct: human liver microsomes (0.25 mg/mL); from tissue; host or cells: human liver microsomes
T5 sequence (P10635 whole entry): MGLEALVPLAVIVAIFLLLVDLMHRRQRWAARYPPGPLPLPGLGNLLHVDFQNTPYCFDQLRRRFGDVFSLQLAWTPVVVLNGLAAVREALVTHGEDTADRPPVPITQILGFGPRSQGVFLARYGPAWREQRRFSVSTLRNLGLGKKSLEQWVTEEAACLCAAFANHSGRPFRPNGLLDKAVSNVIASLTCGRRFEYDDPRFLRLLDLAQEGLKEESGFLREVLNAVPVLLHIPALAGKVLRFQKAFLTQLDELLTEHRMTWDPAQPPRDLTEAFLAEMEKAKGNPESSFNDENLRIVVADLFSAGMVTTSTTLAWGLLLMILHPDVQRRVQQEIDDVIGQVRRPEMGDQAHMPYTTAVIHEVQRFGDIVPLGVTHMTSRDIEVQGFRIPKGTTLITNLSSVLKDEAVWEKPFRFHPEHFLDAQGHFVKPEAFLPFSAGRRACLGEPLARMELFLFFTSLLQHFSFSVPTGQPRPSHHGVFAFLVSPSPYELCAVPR
Procedure: as §5, §6, §7

CYP2C9 = target: T6, CYP2C9 (Homo sapiens, UniProt P11712); experiment: as above; type: in vitro ADME; conditions: compound 10 PM (so in the source); human liver microsomes 0.25 mg/mL; substrate diclofenac; 15 minutes
T6 construct: human liver microsomes (0.25 mg/mL); from tissue; host or cells: human liver microsomes
T6 sequence (P11712 whole entry): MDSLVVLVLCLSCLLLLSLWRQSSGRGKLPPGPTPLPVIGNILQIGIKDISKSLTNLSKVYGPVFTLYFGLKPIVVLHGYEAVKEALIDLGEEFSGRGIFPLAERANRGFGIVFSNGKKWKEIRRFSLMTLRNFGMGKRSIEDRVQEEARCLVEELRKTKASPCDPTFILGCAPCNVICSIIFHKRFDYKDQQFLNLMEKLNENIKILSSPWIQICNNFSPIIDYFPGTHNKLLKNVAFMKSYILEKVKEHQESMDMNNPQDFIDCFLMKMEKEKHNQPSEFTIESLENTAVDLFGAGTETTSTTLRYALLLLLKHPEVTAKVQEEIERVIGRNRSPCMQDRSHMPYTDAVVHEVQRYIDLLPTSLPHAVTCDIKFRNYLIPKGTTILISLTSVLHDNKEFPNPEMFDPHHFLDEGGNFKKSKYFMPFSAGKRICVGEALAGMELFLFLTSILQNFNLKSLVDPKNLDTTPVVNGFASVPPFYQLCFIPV
Procedure: as §5, §6, §7

Row | Structure (SMILES) | Cell survival rate (% @ 10 μM) (Tau-BiFC cells) [%] | IC50 (tau protein) [µM] | liver microsomal stability, Mouse (%) [1] [%] | liver microsomal stability, Dog (%) [2] [%] | inhibition effects of CYP coenzyme activity, CYP3A4 (CYP3A4) | liver microsomal stability, Human (%) [3] [%] | liver microsomal stability, Rat (%) [4] [%] | inhibition effects of CYP coenzyme activity, CYP1A2 (CYP1A2) | inhibition effects of CYP coenzyme activity, CYP2C19 (CYP2C19) | inhibition effects of CYP coenzyme activity, CYP2D6 (CYP2D6) | inhibition effects of CYP coenzyme activity, CYP2C9 (CYP2C9)
1 | COc1cnc(-c2ccc(NN=C(C#N)C#N)cc2)nc1 [Compound 8, (4-(5-methoxypyrimidin-2-yl)-phenyl)carbonohydrazonoyl dicyanide] | 107.8 | 0.02 | 83.7 | 96 | >100 | 80.9 | 40.7 | 94.1 | >100 | >100 | 85.1
2 | Cc1ncsc1-c1ccc(NN=C(C#N)C#N)cc1 [Compound 12, (4-(4-methylthiazol-5-yl)phenyl)carbonohydrazonoyl dicyanide] | 119.3 | 0.03 | 45.2 | 81.6 | 91.6 | 52.2 | 25.8 | 88.1 | 81.3 | 87.8 | 7.4
3 | N#CC(C#N)=NNc1ccc(-n2cccn2)cc1 [Compound 35, (4-(1H-pyrazol-1-yl)phenyl)carbonohydrazonoyl dicyanide] | 100 | 1.7 | 10.7 | 24.2 | >100 | 82.2 | 56.4 | 99.9 | >100 | >100 | 81.3
4 | Cc1cnn(-c2ccc(NN=C(C#N)C#N)cc2)c1 [Compound 36, (4-(4-methyl-1H-pyrazol-1-yl)phenyl)carbonohydrazonoyl dicyanide] | 99.3 | 0.053 | 37.9 | 60.6 | >100 | 65.9 | 20.1 | 86 | >100 | 98.6 | 60.7
5 | Cc1ccnc(-c2ccc(NN=C(C#N)C#N)c(F)c2)n1 [Compound 37, (2-fluoro-4-(4-methylpyrimidin-2-yl)phenyl)carbonohydrazonoyl dicyanide] | 88.3 | 1.34 | 32.7 | 61 | >100 | 55.7 | 25.9 | 78.1 | 100 | >100 | 56.9
6 | COc1cc(-c2nccc(C)n2)ccc1NN=C(C#N)C#N [Compound 42, (2-methoxy-4-(4-methylpyrimidin-2-yl)phenyl)carbonohydrazonoyl dicyanide] | 128 | 3 | 47.9 | 30.7 | >100 | 53.4 | 46.5 | 83.6 | 96.2 | >100 | 88.8
